Legend:
[1] = tested on: hearts from Lmna^H222P/H222P mice; assay: Quantification of myocardial fibrotic area (Gomori's trichrome); assay type: in vivo, mouse; details: 20 weeks of age; 3 mg/kg/day from 16 to 20 weeks; DMSO 15.01±0.9%
Description: Later-stage cardiomyopathy caused by LMNA mutations is characterized by myocardial fibrosis. […] We quantified the myocardial fibrotic area of each animal by determining the ratio of fibrotic tissue (blue stained with Gomori's trichrome) to the total tissue area in each micrograph (FIG. 8B). Hearts from DMSO-treated Lmna^H222P/H222P mice had 20.93%±2.45% fibrotic tissue per total surface examined (FIG. 8B).
Mice were sacrificed at 20 weeks of age, and freshly removed hearts were fixed in 4% formaldehyde for 48 hours, embedded in paraffin, sectioned at 5 μm and stained with hematoxylin, eosin and Gomori's trichrome and Syrius Red. Representative stained sections were photographed using a Microphot SA (Nikon) light microscope attached to a Spot RT Slide camera (Diagnostic Instruments) with a 10× objective. Images were processed using Adobe Photoshop CS (Adobe Systems).
Later-stage cardiomyopathy caused by LMNA mutations is characterized by myocardial fibrosis (21,22). […] We quantified the myocardial fibrotic area of each animal by determining the ratio of fibrotic tissue (blue stained with Gomori's trichrome) to the total tissue area in each micrograph (FIG. 34C). Hearts from DMSO-treated Lmna^H222P/H222P mice had 15.01±0.9% fibrotic tissue per total surface examined (FIG. 34D).

JNK = assay: Immunoblot of phosphorylated JNK versus total JNK in hearts of treated mice; assay type: in vivo, mouse; details: for phosphorylation of JNK / JNK signaling in heart: treated 8 to 16 weeks of age, 3 mg/kg/day i.p.
Method: Hearts were excised from mice at 16-weeks of age and were homogenized in RIPA extraction buffer (Cell Signalling) containing protease inhibitors (25 […]). Protein samples were subjected to SDS-PAGE, transferred to nitrocellulose membranes and blotted with primary antibodies against ERK1/2 (Santa-Cruz), phosphorylated ERK1/2 (Cell Signaling), JNK (Santa-Cruz), natriuretic peptide precursor A (Santa-Cruz), phosphorylated JNK (Cell Signaling), and Gapdh (Ambion). Secondary antibodies were HRP-conjugated (Amersham). Recognized proteins were visualized by enhanced chemiluminescence (ECL, Amersham). The signal generated using an antibody against Gapdh was used as internal controls to normalize the amounts of protein between immunoblots.
Proteins were loaded on 10% SDS gels and electrotransferred on a […] pore size nitrocellulose membrane (Invitrogen). We used antibodies directed against phosphorylated ERK1/2 (Cell Signaling, 1:1,000), total ERK1/2 (Santa Cruz, 1:2,000), phosphorylated JNK (Cell Signaling, 1:1,000) and total JNK (Santa Cruz, 1:200). The secondary antibodies were coupled to horseradish-peroxydase (Amersham). Recognized proteins were visualized by enhanced chemiluminescence (SuperSignal® West Pico chemiluminescent substrate, Thermo Scientific).

Lmna^H222P/H222P mice = assay: Deaths during the 4-week treatment protocol; assay type: in vivo, mouse; details: 4-week treatment from 16 weeks; PD98059 n=22, SP600125 n=29; DMSO 6 of n=28
Description: We assigned male Lmna^H222P/H222P mice 16 weeks of age to 3 different treatment arms (placebo DMSO, n=28; MEK1/2 inhibitor PD98059, n=22; JNK inhibitor SP600125, n=29) and examined parameters of cardiac structure and function at 20 weeks of age, after 4 weeks treatment. […] Lmna^H222P/H222P mice also have depressed cardiac contractility, with fractional shortening (FS) decreased by 20%-40% compared to Lmna^+/+ mice (13,15). Myocardial fibrosis occurs in Lmna^H222P/H222P mice at 16 weeks of age (16). At 20 weeks, LVEDD and LVESD increase further in Lmna^H222P/H222P mice and cardiac contractility also progressively deteriorates (16). During the 4-week treatment protocol, 6 mice in the DMSO group, 3 in the PD98059 group and 3 in the SP600125 group died prior to reaching 20 weeks of age for evaluation.

C2C12 cells = assay: ERK1/2 phosphorylation in C2C12 cells treated with Emd and Lmna siRNAs (immunoblot, ELISA); assay type: cell-based, mouse; details: 45 μM for 24 hours
Method: (§1) Human HeLa cells and mouse C2C12 cells were maintained in a 5% CO2 atmosphere at 37° C. The cells were cultured in Dulbecco's modified Eagle's medium supplemented with 10% calf bovine serum and 0.1% gentamicin.
(§2) One day before transfection, HeLa and C2C12 cells were trypsinized, diluted with fresh medium without antibiotics and transferred to 24-well plates. Transient transfection of siRNAs was carried out using Oligofectamine (Invitrogen) as recommended by the manufacturer. Cells were preincubated in 7.5 μl OPTIMEM 1 medium (Life Technologies) and 2 μl Oligofectamine per well for 5 minutes at room temperature. During the time of this incubation, 40 μl OPTIMEM 1 medium were mixed with 2.5 μl siRNA. The two mixtures were combined and incubated for 20 minutes at room temperature for complex formation. The entire mixture was added to the cells in one well resulting in a final concentration of […] for the siRNAs. […]
(§3) Proteins were separated by SDS-PAGE, transferred to nitrocellulose membranes and blotted with primary antibodies against ERK1/2 (Santa-Cruz), pERK1/2 (Cell Signaling), lamin A/C (Santa-Cruz), emerin (Novocatra), β-actin (Sant-Cruz) and Gapdh (Santa-Cruz). […] Band densities were calculated using Scion Image software (Scion Corporation) and normalized to the appropriate total extract to control for protein loading. […]

cyclooxygenase-2 = details: reference 137; cited from earlier work
HeLa cells = assay: ERK1/2 phosphorylation in HeLa cells treated with Emd and Lmna siRNAs; assay type: cell-based, human; details: 45 μM for 24 hours
Method: as §1, §2, §3

cyclooxygenase-1 = details: reference 137; cited from earlier work
[2] = 3 mg/kg/day from 16 to 20 weeks of age

SMILES | area of fibrotic tissue per total surface examined [1] | phosphorylation of JNK in hearts (JNK; [2]) | phosphorylation of JNK in hearts (JNK; pilot study, 24 week-old mice treated from 19 weeks) | phosphorylation of JNK / JNK signaling in heart (JNK) | mice that died prior to reaching 20 weeks of age (Lmna^H222P/H222P mice) | increase in pERK (immunoblot) (C2C12 cells; C2C12 cells treated with Emd and Lmna siRNAs) | ERK1/2 phosphorylation (ELISA) (C2C12 cells; siRNA-treated C2C12 cells (FIG. 20B)) | activity against cyclooxygenase-2 (cyclooxygenase-2) | increase in pERK (immunoblot) (HeLa cells) | activity against cyclooxygenase-1 (cyclooxygenase-1)
O=C1c2ccccc2-c2n[nH]c3cccc1c23 [SP600125, anthra[1,9-cd]pyrazol-6(2H)-one] | 5.86%±0.4% | partially blocked | partially blocked | blocked | 3 | – | – | – | – | –
COc1cccc(-c2cc(=O)c3ccccc3o2)c1N [PD98059, 2-(2-amino-3-methoxyphenyl)-4H-1-benzopyran-4-one] | 4.48%±1% | not significantly inhibited | – | did not observe inhibition | 3 | reduced | Inhibition of ERK1/2 | has activity | reduced | has activity

From patent US20110110916A1, “METHODS FOR TREATING AND/OR PREVENTING CARDIOMYOPATHIES BY ERK OR JNK INHIBITION” (priority 2008, published 2011)
